{
  "source": "ChEMBL document CHEMBL5579859",
  "about": "“Discovery of novel indazole derivatives as second-generation TRK inhibitors” (Eur J Med Chem, 2024)",
  "key": {"[1]": {"target": "High affinity nerve growth factor receptor (Homo sapiens, UniProt P04629, G595R)", "sequence (P04629 33-796 G595R limits assumed)": "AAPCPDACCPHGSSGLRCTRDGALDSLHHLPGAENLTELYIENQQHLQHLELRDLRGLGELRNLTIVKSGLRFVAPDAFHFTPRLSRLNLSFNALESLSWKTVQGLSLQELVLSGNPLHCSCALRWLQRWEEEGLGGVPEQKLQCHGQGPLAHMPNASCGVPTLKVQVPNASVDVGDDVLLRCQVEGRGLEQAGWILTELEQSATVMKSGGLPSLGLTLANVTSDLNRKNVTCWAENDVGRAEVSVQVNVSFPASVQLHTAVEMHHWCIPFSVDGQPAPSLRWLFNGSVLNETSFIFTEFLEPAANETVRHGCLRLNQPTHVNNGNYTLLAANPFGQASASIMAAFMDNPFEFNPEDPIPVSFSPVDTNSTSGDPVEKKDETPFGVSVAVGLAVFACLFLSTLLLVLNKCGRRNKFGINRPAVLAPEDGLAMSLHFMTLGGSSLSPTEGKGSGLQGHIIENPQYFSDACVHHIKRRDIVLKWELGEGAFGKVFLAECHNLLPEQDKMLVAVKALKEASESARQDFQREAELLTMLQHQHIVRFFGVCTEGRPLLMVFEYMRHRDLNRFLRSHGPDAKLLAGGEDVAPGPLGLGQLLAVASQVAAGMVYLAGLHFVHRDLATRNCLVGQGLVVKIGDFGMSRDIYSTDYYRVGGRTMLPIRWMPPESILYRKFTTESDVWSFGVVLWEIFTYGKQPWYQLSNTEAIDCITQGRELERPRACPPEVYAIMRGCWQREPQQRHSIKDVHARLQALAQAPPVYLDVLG", "assay": "Inhibition of TRKA G595R mutant (unknown origin) using TK as substrate incubated for 30 mins in presence of ATP by HTRF assay"}, "[2]": {"target": "High affinity nerve growth factor receptor (Homo sapiens, UniProt P04629, F589L)", "sequence (P04629 33-796 F589L limits assumed)": "as the sequence (P04629 33-796 G595R limits assumed) above, with F557L, R563G counted along it", "assay": "Inhibition of TRKA F589L mutant (unknown origin) using TK as substrate incubated for 30 mins in presence of ATP by HTRF assay"}, "[3]": {"target": "High affinity nerve growth factor receptor (Homo sapiens, UniProt P04629, G667C)", "sequence (P04629 33-796 G667C limits assumed)": "as the sequence (P04629 33-796 G595R limits assumed) above, with R563G, G635C counted along it", "assay": "Inhibition of TRKA G667C mutant (unknown origin) using TK as substrate incubated for 30 mins in presence of ATP by HTRF assay"}, "[4]": {"target": "High affinity nerve growth factor receptor (Homo sapiens, UniProt P04629)", "sequence (P04629 whole entry)": "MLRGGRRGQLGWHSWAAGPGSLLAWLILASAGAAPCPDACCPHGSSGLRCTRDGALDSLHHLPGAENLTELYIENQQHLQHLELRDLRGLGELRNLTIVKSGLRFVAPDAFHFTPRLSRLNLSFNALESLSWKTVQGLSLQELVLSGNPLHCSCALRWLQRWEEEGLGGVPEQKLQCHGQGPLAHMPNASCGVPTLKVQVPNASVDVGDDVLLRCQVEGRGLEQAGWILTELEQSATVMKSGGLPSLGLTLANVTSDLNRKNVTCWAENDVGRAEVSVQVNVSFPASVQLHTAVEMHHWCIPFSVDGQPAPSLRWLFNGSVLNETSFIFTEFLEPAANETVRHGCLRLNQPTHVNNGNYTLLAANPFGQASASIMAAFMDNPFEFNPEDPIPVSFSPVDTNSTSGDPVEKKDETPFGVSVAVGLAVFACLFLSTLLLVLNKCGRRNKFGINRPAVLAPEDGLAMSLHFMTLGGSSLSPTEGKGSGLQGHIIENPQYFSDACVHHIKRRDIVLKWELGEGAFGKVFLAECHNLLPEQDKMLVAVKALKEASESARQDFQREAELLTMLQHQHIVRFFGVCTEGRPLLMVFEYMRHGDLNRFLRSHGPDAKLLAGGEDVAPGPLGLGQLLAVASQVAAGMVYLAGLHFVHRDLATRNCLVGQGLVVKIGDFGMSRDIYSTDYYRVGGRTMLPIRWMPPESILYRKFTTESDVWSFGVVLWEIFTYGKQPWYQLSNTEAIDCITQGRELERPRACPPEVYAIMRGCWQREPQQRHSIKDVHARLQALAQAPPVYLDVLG", "assay": "Inhibition of TRKA (unknown origin) using TK as substrate incubated for 30 mins in presence of ATP by HTRF assay"}, "[5]": {"target": "NT-3 growth factor receptor (Homo sapiens, UniProt Q16288)", "sequence (Q16288 whole entry)": "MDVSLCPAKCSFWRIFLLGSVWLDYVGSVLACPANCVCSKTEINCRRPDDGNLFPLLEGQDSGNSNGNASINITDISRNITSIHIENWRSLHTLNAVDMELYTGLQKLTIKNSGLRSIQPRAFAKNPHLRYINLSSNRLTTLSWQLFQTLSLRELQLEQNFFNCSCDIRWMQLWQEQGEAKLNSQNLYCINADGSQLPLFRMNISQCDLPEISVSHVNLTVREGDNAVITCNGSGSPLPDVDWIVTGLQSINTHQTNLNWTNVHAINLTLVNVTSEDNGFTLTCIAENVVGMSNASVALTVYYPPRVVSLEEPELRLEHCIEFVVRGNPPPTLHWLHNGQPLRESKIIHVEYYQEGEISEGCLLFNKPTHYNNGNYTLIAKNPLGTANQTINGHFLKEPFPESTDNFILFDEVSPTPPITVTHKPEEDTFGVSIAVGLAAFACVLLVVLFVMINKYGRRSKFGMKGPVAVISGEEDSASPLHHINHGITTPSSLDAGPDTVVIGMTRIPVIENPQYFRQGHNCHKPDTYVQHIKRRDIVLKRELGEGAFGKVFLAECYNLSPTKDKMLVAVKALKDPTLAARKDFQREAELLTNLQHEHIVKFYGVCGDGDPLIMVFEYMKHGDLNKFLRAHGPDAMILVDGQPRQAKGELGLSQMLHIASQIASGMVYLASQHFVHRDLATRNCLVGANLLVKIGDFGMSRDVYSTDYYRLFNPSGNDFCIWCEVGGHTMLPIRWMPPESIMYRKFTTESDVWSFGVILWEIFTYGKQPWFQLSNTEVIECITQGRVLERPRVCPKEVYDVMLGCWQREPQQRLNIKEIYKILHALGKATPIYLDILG", "assay": "Inhibition of TRKC (unknown origin) using TK as substrate incubated for 40 mins in presence of ATP by HTRF assay"}, "[6]": {"system": "KM12", "assay": "cells", "conditions": "Homo sapiens, KM12, 72 h", "description": "Antiproliferative activity against human KM12 cells incubated for 72 hrs by CCK8 assay"}, "[7]": {"system": "BaF3", "assay": "cells", "conditions": "Mus musculus, BaF3, 72 h", "description": "Antiproliferative activity against mouse BaF3 cells expressing TRKA G595R mutant incubated for 72 hrs by CCK8 assay"}, "[8]": {"system": "BaF3", "assay": "cells", "conditions": "Mus musculus, BaF3, 72 h", "remark": "listed apart in the source"}, "[9]": {"system": "MCF7", "assay": "cells", "conditions": "Homo sapiens, MCF7, 72 h", "description": "Antiproliferative activity against human MCF7 cells incubated for 72 hrs by CCK8 assay"}},
  "data": [
    {"smiles": "COc1ccc(F)cc1CNc1ccc2[nH]nc(-n3cc(C(F)(F)F)cn3)c2c1", "values": [
      {"measurement": "IC50", "setting": "[1]", "result": 5700, "unit": "nM"}
    ]},
    {"smiles": "COc1ccc(F)cc1CNc1ccc2[nH]nc(-n3cccn3)c2c1", "values": [
      {"measurement": "IC50", "setting": "[1]", "result": 550, "unit": "nM"}
    ]},
    {"smiles": "COc1ccc(F)cc1CNc1ccc2[nH]nc(C(N)=O)c2c1", "values": [
      {"measurement": "IC50", "setting": "[1]", "result": 670, "unit": "nM"}
    ]},
    {"smiles": "COc1ccc(F)cc1CNc1ccc2[nH]nc(C(=O)N3CCC(F)(F)C3)c2c1", "values": [
      {"measurement": "IC50", "setting": "[1]", "result": 33100, "unit": "nM"}
    ]},
    {"smiles": "CNC(=O)c1n[nH]c2ccc(NCc3cc(F)ccc3OC(C)C)cc12", "values": [
      {"measurement": "IC50", "setting": "[1]", "result": 240, "unit": "nM"}
    ]},
    {"smiles": "COc1ccc(F)cc1CNc1ccc2[nH]nc(C(=O)NCC(F)F)c2c1", "values": [
      {"measurement": "IC50", "setting": "[1]", "result": 8590, "unit": "nM"}
    ]},
    {"smiles": "CNC(=O)c1n[nH]c2ccc(NCc3cc(F)ccc3OCCO)cc12", "values": [
      {"measurement": "IC50", "setting": "[1]", "result": 1170, "unit": "nM"}
    ]},
    {"smiles": "CNC(=O)c1n[nH]c2ccc(NCc3cc(F)ccc3OC)cc12", "values": [
      {"measurement": "IC50", "setting": "[1]", "result": 92, "unit": "nM"}
    ]},
    {"smiles": "CNC(=O)c1n[nH]c2ccc(NCc3cc(F)ccc3OC3CCOC3)cc12", "note": "(stereo unspecified)", "values": [
      {"measurement": "IC50", "setting": "[1]", "result": 210, "unit": "nM"}
    ]},
    {"smiles": "Fc1ccc(OCC(F)F)c(CNc2ccc3[nH]nc(-n4ccnn4)c3c2)c1", "values": [
      {"measurement": "IC50", "setting": "[1]", "result": 63, "unit": "nM"},
      {"measurement": "IC50", "setting": "[2]", "result": 2, "unit": "nM"},
      {"measurement": "IC50", "setting": "[3]", "result": 61, "unit": "nM"},
      {"measurement": "IC50", "setting": "[4]", "result": 3, "unit": "nM"},
      {"measurement": "IC50", "setting": "[5]", "result": 4, "unit": "nM"},
      {"measurement": "IC50", "setting": "[6]", "result": 9.8, "unit": "nM"},
      {"measurement": "IC50", "setting": "[7]", "result": 132, "unit": "nM"},
      {"measurement": "IC50", "setting": "[8]", "result": 136, "unit": "nM"},
      {"measurement": "IC50", "setting": "[9]", "result": "> 10000", "unit": "nM"}
    ]},
    {"smiles": "CNC(=O)c1n[nH]c2ccc(NCc3cc(F)ccc3S(C)(=O)=O)cc12", "values": [
      {"measurement": "IC50", "setting": "[1]", "result": 1120, "unit": "nM"}
    ]},
    {"smiles": "CNC(=O)c1n[nH]c2ccc(NCc3cc(F)ccc3OCC(F)F)cc12", "values": [
      {"measurement": "IC50", "setting": "[5]", "result": 3, "unit": "nM"}
    ]},
    {"smiles": "COc1ccc(F)cc1CNc1ccc2[nH]nc(-n3cc(F)cn3)c2c1", "values": [
      {"measurement": "IC50", "setting": "[1]", "result": 350, "unit": "nM"}
    ]},
    {"smiles": "Fc1ccc(OCC(F)F)c(CNc2ccc3[nH]nc(-c4cnoc4)c3c2)c1", "values": [
      {"measurement": "IC50", "setting": "[1]", "result": 35, "unit": "nM"},
      {"measurement": "IC50", "setting": "[2]", "result": 8, "unit": "nM"},
      {"measurement": "IC50", "setting": "[3]", "result": 49, "unit": "nM"},
      {"measurement": "IC50", "setting": "[4]", "result": 5, "unit": "nM"}
    ]},
    {"smiles": "C[C@@H]1CCc2ncc(F)cc2[C@H]2CCCN2c2ccn3ncc(c3n2)C(=O)N1", "note": "[SELITRECTINIB]", "values": [
      {"measurement": "IC50", "setting": "[6]", "result": 6.8, "unit": "nM"},
      {"measurement": "IC50", "setting": "[7]", "result": 12, "unit": "nM"},
      {"measurement": "IC50", "setting": "[8]", "result": 113, "unit": "nM"},
      {"measurement": "IC50", "setting": "[9]", "result": "> 10000", "unit": "nM"}
    ]},
    {"smiles": "CNC(=O)c1n[nH]c2ccc(NCc3cc(F)ccc3OCCF)cc12", "values": [
      {"measurement": "IC50", "setting": "[1]", "result": 200, "unit": "nM"}
    ]},
    {"smiles": "N#Cc1n[nH]c2ccc(NCc3cc(F)ccc3OCC(F)F)cc12", "values": [
      {"measurement": "IC50", "setting": "[1]", "result": 30, "unit": "nM"},
      {"measurement": "IC50", "setting": "[2]", "result": 10, "unit": "nM"},
      {"measurement": "IC50", "setting": "[3]", "result": 1200, "unit": "nM"},
      {"measurement": "IC50", "setting": "[4]", "result": 32, "unit": "nM"},
      {"measurement": "IC50", "setting": "[5]", "result": 3, "unit": "nM"}
    ]},
    {"smiles": "CNC(=O)c1n[nH]c2ccc(NCc3cc(F)ccc3OC(F)F)cc12", "values": [
      {"measurement": "IC50", "setting": "[1]", "result": 380, "unit": "nM"}
    ]},
    {"smiles": "COc1ccc(F)cc1CNc1ccc2[nH]nc(C(=O)N3CCC(O)C3)c2c1", "note": "(stereo unspecified)", "values": [
      {"measurement": "IC50", "setting": "[1]", "result": "> 50000", "unit": "nM"}
    ]},
    {"smiles": "CNC(=O)c1n[nH]c2ccc(NCc3cc(F)ccc3OCC(F)(F)F)cc12", "values": [
      {"measurement": "IC50", "setting": "[1]", "result": 140, "unit": "nM"}
    ]},
    {"smiles": "Fc1ccc(OCC(F)F)c(CNc2ccc3[nH]nc(-n4cncn4)c3c2)c1", "values": [
      {"measurement": "IC50", "setting": "[1]", "result": 19, "unit": "nM"},
      {"measurement": "IC50", "setting": "[2]", "result": 1, "unit": "nM"},
      {"measurement": "IC50", "setting": "[3]", "result": 25, "unit": "nM"},
      {"measurement": "IC50", "setting": "[4]", "result": 1, "unit": "nM"},
      {"measurement": "IC50", "setting": "[5]", "result": 2, "unit": "nM"},
      {"measurement": "IC50", "setting": "[6]", "result": 5.7, "unit": "nM"},
      {"measurement": "IC50", "setting": "[7]", "result": 54.5, "unit": "nM"},
      {"measurement": "IC50", "setting": "[8]", "result": 64.1, "unit": "nM"},
      {"measurement": "IC50", "setting": "[9]", "result": "> 10000", "unit": "nM"}
    ]},
    {"smiles": "CNC(=O)c1n[nH]c2ccc(NCc3cc(F)ccc3P(C)(C)=O)cc12", "values": [
      {"measurement": "IC50", "setting": "[1]", "result": 5580, "unit": "nM"}
    ]},
    {"smiles": "COc1ccc(F)cc1CNc1ccc2[nH]nc(-c3cccc(F)c3)c2c1", "values": [
      {"measurement": "IC50", "setting": "[1]", "result": 360, "unit": "nM"}
    ]},
    {"smiles": "COc1ccc(F)cc1CNc1ccc2[nH]nc(C(=O)NC3CC3)c2c1", "values": [
      {"measurement": "IC50", "setting": "[1]", "result": 3650, "unit": "nM"}
    ]},
    {"smiles": "CNC(=O)c1n[nH]c2ccc(NCc3cc(F)ccc3OC3CCOCC3)cc12", "values": [
      {"measurement": "IC50", "setting": "[1]", "result": 290, "unit": "nM"}
    ]},
    {"smiles": "COc1ccc(F)cc1CNc1ccc2[nH]nc(-c3ccc(F)cc3)c2c1", "values": [
      {"measurement": "IC50", "setting": "[1]", "result": 1350, "unit": "nM"}
    ]},
    {"smiles": "COc1ccc(F)cc1CNc1ccc2[nH]nc(C(=O)NO)c2c1", "values": [
      {"measurement": "IC50", "setting": "[1]", "result": 4830, "unit": "nM"}
    ]},
    {"smiles": "COc1ccc(F)cc1CNc1ccc2[nH]nc(-c3cn[nH]c3)c2c1", "values": [
      {"measurement": "IC50", "setting": "[1]", "result": 110, "unit": "nM"}
    ]},
    {"smiles": "COc1ccc(F)cc1CNc1ccc2[nH]nc(-n3cnc(C(F)(F)F)c3)c2c1", "values": [
      {"measurement": "IC50", "setting": "[1]", "result": 580, "unit": "nM"}
    ]},
    {"smiles": "COc1ccc(F)cc1CNc1ccc2[nH]nc(C#N)c2c1", "values": [
      {"measurement": "IC50", "setting": "[1]", "result": 170, "unit": "nM"}
    ]}
  ]
}
